These are literature values, as cited in US20160001001A1 (priority 2013, published 2016).

The conditions of this data set: in vivo.

Turning to `CN1CC[C@]23c4c5ccc(O)c4O[C@H]2[C@@H](O)C=C[C@H]3[C@H]1C5` [Morphine], the Onset time was 8 min and the “Time elapsing until the maximum analgesic effect is reached” value was 25 min.
